Patent US8524738B2, “Quinolinones and quinoxalinones as antibacterial composition” (Toyama Chemical Co., Ltd., priority 2005, dated 2013)
Values after ≈ are worked out from the molar mass of the structure shown. Where a name gives a salt, the structure may show the parent alone. Read-outs that look alike come from different tables or passages of the source.

How the values were obtained:
[1] = tested on: Staphylococcus aureus (S. aureus FDA209P); assay: Sensitivity Test 1: antibacterial activity (MIC) by micro-dilution method; format: cell-based
Protocol: (§1) Test compounds were initially dissolved in dimethylsulfoxide. Antibacterial activities (MICs) of the same compounds were determined by the micro-dilution method as recommended by the Japanese Society of Chemotherapy.
(§2) Staphylococcus aureus (S. aureus FDA209P) was used as the test organism. The bacterial cells were grown overnight at 35° C. on Mueller-Hinton agar (MHA) plates. The bacterial cells were then suspended in sterile saline and adjusted to the turbidity of a 0.5 McFarland standard. The inoculum was prepared by 10-fold dilution of this suspension. Approximately 0.005 mL aliquots of the inoculum prepared above were subsequently inoculated into Cation-adjusted Mueller-Hinton broth (CAMHB, 100 μL/well) including the test compounds for overnight incubation at 35° C.

[2] = tested on: Methicillin-resistant Staphylococcus aureus (S. aureus F-3095); assay: Sensitivity Test 2: antibacterial activity (MIC) by micro-dilution method; format: cell-based
Protocol: as §1, §2
Methicillin-resistant Staphylococcus aureus (S. aureus F-3095) was used as the test organism. Antibacterial activities (MICs) were determined in the same manner as in Test Example 1.

Vero cells = assay: Cytotoxicity Test (XTT) on Vero cells; format: cell-based; conditions: 51.2 μg/mL of test compound, 3 days at 37° C., XTT absorbance ratio of treated to untreated well
Protocol: Test compounds were initially dissolved in dimethylsulfoxide. […]. After incubation, absorbance was read at 450 nm and 655 nm in a spectrophotometric microplate reader. The values were expressed as the ratio between the value for the well treated with 51.2 μg/mL of each test compound and the value for the well untreated with the test compound (T/C).

S. aureus Smith = assay: Infection Test: mice infected intraperitoneally with S. aureus Smith; format: in vivo; conditions: ICR mice, 5 per group; S. aureus Smith i.p.; 10 mg/kg subcutaneously once at 1 hour after infection; survivors recorded 3 days after infection
Protocol: S. aureus Smith which was grown overnight at 37° C. on Mueller-Hinton agar (MHA) plates were suspended to give a final concentration of 10^9 CFU/mL. The inoculum was prepared by diluting this suspension 10-fold in 1/15 mol/L phosphate buffer (pH 7) containing 5.6% mucin. ICR mice (4 to 4.5 weeks of age, male, 5 mice per group) were intraperitoneally administered with the inoculum (approximately 2×10^7 CFU per mice) to induce infection.
After dissolving the test compounds in 0.1 mol/L hydrochloric acid, 20% 2-hydroxypropyl-β-cyclodextrin (HP-β-CD) or a mixture of 20% HP-β-CD and 0.1 mol/L hydrochloric acid at a proportion of 1:1 was added to give a final concentration of 1 mg/mL. Each of the test compound solutions (10 mg/kg) was subcutaneously administered once to a group of mice at 1 hour after infection. The control group was administered with 10% HP-β-CD. The mice were observed daily and the number of surviving mice in each group was recorded 3 days after infection.

[3] = S. aureus FDA209P, CAMHB, overnight incubation at 35° C., lowest concentration with virtually no growth, read-out: MIC
[4] = Methicillin-resistant S. aureus F-3095, same manner as in Test Example 1, read-out: MIC

SMILES	MIC [1, 3] [µg/mL]	MIC [2, 4] [µg/mL]	T/C (Vero cells) [%]	Number of surviving mice (S. aureus Smith)	MIC ([1]; FDA209P) [µg/mL]	MIC [2] [µg/mL]
COc1ccc2ncc(=O)n(CCC3(O)CCC(NCc4cc5c(cn4)OCCO5)CC3)c2c1 (single isomer, unassigned) [389(B), 1-(2-(4-((2,3-dihydro(1,4)dioxino(2,3-c)pyridin-7-ylmethyl)amino)-1-hydroxycyclohexyl)ethyl)-7-methoxyquinoxalin-2(1H)-one]	0.0156 (≈ 0.0334 µM)	0.0625 (≈ 0.134 µM)	>50	–	–	–
COc1ccc2c(C)cc(=O)n(CCCC3(C(=O)O)CCN(CCSc4cccs4)CC3)c2c1 [Example 7, 4-(3-(7-methoxy-4-methyl-2-oxoquinolin-1(2H)-yl)propyl)-1-(2-(2-thienylthio)ethyl)piperidine-4-carboxylic acid]	0.25 (≈ 0.499 µM)	–	>50	–	–	–
CNC(=O)c1cc(=O)n(CCN2CCC(NCc3ccc4c(c3)OCCO4)CC2)c2cc(OC)ccc12 [Example 25, 1-(2-(4-((2,3-dihydro-1,4-benzodioxin-6-ylmethyl)amino)piperidin-1-yl)ethyl)-7-methoxy-N-methyl-2-oxo-1,2-dihydroquinoline-4-carboxamide]	0.0625 (≈ 0.123 µM)	0.125 (≈ 0.247 µM)	>50	5	–	–
O=c1ccc2ccccc2n1CCN1CCC(NCc2ccc3c(c2)OCCO3)CC1 [Example 63, 1-(2-(4-(2,3-dihydro-1,4-benzodioxin-6-ylmethyl)amino)piperidin-1-yl)ethyl)-quinolin-2(1H)one hydrochloride]	0.0625	–	>50	–	–	–
COc1ccc2ncc(=O)n(CCN3CCC(NCc4ccc5c(c4)NC(=O)CO5)CC3)c2c1 [Example 90, 6-(((1-(2-(7-methoxy-2-oxoquinoxaline-1-(2H)-yl)ethyl)piperidin-4-yl)amino)methyl)-2H-1,4-benzooxazine-3(4H)-one]	0.0313 (≈ 0.0675 µM)	0.0625 (≈ 0.135 µM)	>50	5	–	–
COCCNC(=O)c1cc(=O)n(CCN2CCC(NCc3ccc4c(c3)OCCO4)CC2)c2cc(OC)ccc12 [Example 141, 1-(2-(4-((2,3-dihydro-1,4-benzodioxin-6-ylmethyl)amino)piperidin-1-yl)ethyl)-7-methoxy-N-(2-methoxyethyl)-2-oxo-1,2-dihydroquinoline-4-carboxamide hydrochloride]	–	–	>50	5	0.125	0.25
Nc1cccc2c1ccc(=O)n2CCN1CCC(NCc2ccc3c(c2)OCCO3)CC1 [Example 263, 1-(2-(4-((2,3-dihydro-1,4-benzodioxin-6-ylmethyl)amino)piperidin-1-yl)ethyl)-5-aminoquinolin-2(1H)-one hydrochloride]	–	–	>50	5	0.125	0.25
CNC(=O)c1cc(=O)n(CCN2CCC(NCc3ccc(C)c(F)c3)CC2)c2cc(OC)ccc12 [Example 340, 1-(2-(4-(3-fluoro-4-methylbenzylamino)piperidin-1-yl)ethyl)-7-methoxy-N-methyl-2-oxo-1,2-dihydroquinoline-4-carboxamide hydrochloride]	–	–	>50	5	0.0313	0.0625
CNC(=O)c1cc(=O)n(CCN2CCC(NCc3cc(-c4cccs4)on3)CC2)c2cc(OC)ccc12 [Example 341, 7-methoxy-N-methyl-2-oxo-1-(2-(4-((5-(thiophen-2-yl)isoxazol-3-yl)methylamino)piperidin-1-yl)ethyl)-1,2-dihydroquinoline-4-carboxamide hydrochloride]	–	–	>50	5	0.0313	0.0625
O=c1cnc2ccc(F)cc2n1CCN1CCC(NCc2cc3c(cn2)OCCO3)CC1 [Example 352, 1-(2-(4-((2,3-dihydro-1,4-dioxino[2,3-c]pyridin-7-yl)methylamino)piperidin-1-yl)ethyl)-7-fluoroquinoxalin-2(1H)-one hydrochloride]	–	–	>50	5	0.0156	0.0313
COc1ccc2ncc(=O)n(CCN3CCC(NCc4cc5c(cn4)OCCO5)CC3)c2c1 [Example 359, 1-(2-(4-((2,3-dihydro-1,4-dioxino[2,3-c]pyridin-7-yl)methylamino)piperidin-1-yl)ethyl)-7-methoxy-quinoxalin-2(1H)-one hydrochloride]	–	–	>50	5	0.0313	0.0313
Cc1ccc(CNC2CCN(CCn3c(=O)cnc4ccc(F)cc43)CC2)cc1F [Example 367, 1-(2-(4-((3-fluoro-4-methylbenzyl)amino)piperidin-1-yl)ethyl)-7-fluoroquinoxalin-2(1H)-one hydrochloride]	–	–	>50	5	0.0156	0.0156
O=C1CSc2ccc(CNC3CCN(CCn4c(=O)cnc5ccc(F)cc54)CC3)nc2N1 [Example 369, 7-fluoro-1-(2-(4-((3-oxo-3,4-dihydro-2H-pyrido[3,2-b][1,4]thiazin-6-yl)methylamino)piperidin-1-yl)ethyl)quinoxalin-2(1H)-one hydrochloride]	–	–	>50	5	0.0313	0.0313
